Key:
[1] = tested on: NaK-ATPase; conditions: Cohen et al., Biochem. Pharmacol. 27: 2555-2558, 1978; cited from earlier work
[2] = tested on: dogs; assay: Protocol RK: systemic arterial pressure and heart rate, pressure not held constant, two doses; format: in vivo
Excerpt: The protocol was the same as described above except that in these dogs, contrary to the previously reported series, the systolic arterial pressure was not maintained constant. Also, the dogs were instrumented only with an electrocardiogram (with lead aVF being constantly recorded), and polyethylene cannula in aorta introduced through the carotid artery to measure aortic pressures, and another cannula in the jugular vein for drug administration. Average heart rate (measured by continuously monitored electrocardiographic lead aVF) was reduced from 146 ± 4 (mean ± 1 S.E.M.) to […] (p <0.1) after the first 45 minutes. After the second 45 minutes heart beat rate was further reduced to […] (p <0.01 ).

[3] = tested on: dogs; assay: Supraventricular arrhythmias by topical application of aconitine to the atria; format: in vivo; conditions: intraveneous bolus 1-5 mg/Kg; aconitine (0.04%) solution
[4] = LD50; conditions: cat, in vivo
[5] = tested on: patient with cardiomyopathy; assay: Berberine in one patient with cardiomyopathy in irreversible cardiogenic shock; format: in vivo
Protocol: In the last two hours before berberine it was not measurable. […] Stroke volume was 20 ml and then 36 and then 36 ml.

[6] = tested on: dogs with acute left ventricular failure; assay: MUGR ejection fraction in dogs with acute left ventricular failure after coronary embolization; format: in vivo; conditions: for EF: 0.2 mg/Kg/min
Protocol: Nevertheless, to verify the response of dogs with acute heart failure with this sophisticated technique, this condition was provoked by previous embolization into the left coronary artery (as described below in protocol HV). thereafter, the effect of berberine infusion was analyzed after embolization. […] Berberine was infused in a rate of 0.2 mg/Kg/min for 30 minutes and MUGR was repeated after 2, 15, 22 and 28 minutes of infusion.
Six dogs were studied using this technique (Table XV). […] The thirty minute infusion of berberine (0.2 mg/Kg/min) was administered. During this period four radionuclide ventriculographies were obtained and averaged. After discontinuation of the infusion again four radionuclide ventriculographies were obtained in the next thirty minutes and averaged.

[7] = tested on: trained conscious dogs; assay: Protocol F: multiple gated radionuclide ventriculography (MUGR), ejection fraction in conscious dogs without failing heart; format: in vivo
Protocol: To determine further the effects of berberine on patients, experiments were carried out on conscious dogs (Protocol F) and the measurement of left ventricular performance was assessed atraumatically using the multiple gated radionuclide ventriculography (MUGR) similarly to what is done in patients. The multiple gated radionuclide ventriculography is used in patients to assess their cardiac (i.e. left ventricular) performance by analyzing in an. atraumatic manner, the ejection fraction (EF) of the left ventricle. This technique substituted the analysis of ejection fraction by contrast angiography since the latter can be done only in the catheterization laboratory with the patient submitted to the introduction of catheters into his arteries and left ventricular cavity as well as an injection of a radio-opaque dye. MUGR consists in using red blood cells labelled with stannous radioactive technetium. These red blod cells can be labelled either in vivo or in vitro prior to injection. The blood that is now emitting gamma radiation can be detected by an external gamma camera. This device can sum many cycles of the heart beat obtaining an average cycle. Then this cycle is divided in time intervals so that, as an example, the end systolic and the end diastolic frames can be identified. Ejection fraction is the end distolic minus the end systolic volumes divided by the end diastolic volume. It indicates therefore the pumping effectiveness of the left ventricle since it measures the fraction (or the percent if multiplied by 100) of the volume of blood that is expelled from the left ventricular cavity. Experiments were carried out in trained conscious dogs. 14.8.108 Bg (40 mCi) of […] used to label red blood cells that were then injected intravenously. […] The images were acquired using fixed density of the left ventricle. They were measured in quadruplicate and averaged. The external gamma camera used was Ohio Nuclear (model VIP 560).

[8] = Microneucleus test with Ames test on urine for mutagenic potential
[9] = LD50, intravenous bolus; conditions: rat, in vivo
[10] = tested on: canine; assay: Effect of berberine after intravenous propanolol, 12 canine experiments; format: in vivo; conditions: intravenous propanolol (1 mg/kg)
Excerpt: The mechanism of berberine is dissimilar to that of beta-adrenergic agonists, which while increasing contractility, increase heart rate also. […] Berberine differs also from digitalis because it reduces peripheral resistance in the non-failing heart.

[11] = Solubility; format: physicochemical
Protocol: The solubility of berberine and other similar compounds of the invention may be altered by changing the pH of the solution having each compound its optimum of pH as far as solubility.
The protoberine alkaloids are administered in the manner most appropriate under the circumstances. Administration may be oral, sublingual, subcutaneous, transdermal or intramuscular injection. The compounds may be administered by intravenous route, parenterally.

[12] = tested on: chronically instrumented conscious dogs; assay: Oral administration in chronically instrumented conscious dogs; format: in vivo
[13] = second dog (Figure VI), after 15 minutes

COc1ccc2cc3[n+](cc2c1OC)CCc1cc2c(cc1-3)OCO2 [berberine]
inhibition of NaK-ATPase activity [1]: inactive
mean pressure ([2]; after 90 minutes, from 114 ± 7): 96 ± 5 mmHg
pulse pressure (systolic minus diastolic pressure) ([2]; end of the experiment, from an average of 28): 35 mmHg
Mean systemic arterial pressure ([2]; first dose, 5 minutes, from 114 ± 7): 87 ± 5 mmHg
Mean systemic arterial pressure ([2]; first dose, 10 minutes): 93 ± 4 mmHg
Mean systemic arterial pressure ([2]; first dose, 15 minutes): 92 ± 5 mmHg
Mean systemic arterial pressure ([2]; first dose, 30 minutes): 101 ± 7 mmHg
Mean systemic arterial pressure ([2]; first dose, 45 minutes): 101 ± 7 mmHg
Mean systemic arterial pressure ([2]; second dose, 5 minutes): 94 ± 4 mmHg
Mean systemic arterial pressure ([2]; second dose, 10 minutes): 95 ± 6 mmHg
Mean systemic arterial pressure ([2]; second dose, 15 minutes): 95 ± 5 mmHg
Mean systemic arterial pressure ([2]; second dose, 30 minutes): 97 ± 5 mmHg
Mean systemic arterial pressure ([2]; second dose, 45 minutes): 97 ± 5 mmHg
atrial ectopic beats, atrial tachycardia or atrial fibrillation [3]: effective in abolishing these arrhythmias
LD50 [4]: ~55 mg/kg
cardiac output ([5]; 0.2 and 0.4 mg/kg/min, after 30 minutes, from 1.2): 3.5 L/min
increase of cardiac output ([5]; after 30 minutes): 192%
cardiac output ([5]; after 90 minutes): 2.2 L/min
increase of cardiac output ([5]; after 90 minutes): 82%
Stroke volume ([5]; first value after berberine, from 20 ml): 36 mL
Stroke volume ([5]; second value after berberine): 36 mL
EF ([6]; another dog, at 2, 39 after embolization): 60%
EF ([6]; another dog, at 15): 62%
EF ([6]; one dog, 2 minutes of infusion, 27 after embolization): 35%
EF ([6]; one dog, 15 minutes): 37%
EF ([6]; one dog, 22 minutes): 39%
EF ([6]; one dog, 28 minutes): 38%
increase of EF ([6]; six dogs): ~50%
left ventricular ejection fraction (EF) ([6]; six dogs, during 30 minute infusion 0.2 mg/Kg/min, from 27 ± 3): 40 ± 3%
EF after the discontinuation of infusion ([6]; six dogs, next half an hour): continued to be significantly elevated
ejection fraction (EF), average ([7]; one dog, after first infusion): 44 ± 2%
ejection fraction (EF), average ([7]; one dog, after second infusion): 40 ± 2%
increase of EF versus the pre-berberine period ([7]; one dog, first infusion): 33%
ejection fraction (EF) ([7]; one dog, first infusion 0.7 mg/Kg/min 5 minutes, 1st reading (5 min), pre-berberine 33 ± 2): 46%
ejection fraction (EF) ([7]; one dog, first infusion, 2nd reading (15 min)): 47%
ejection fraction (EF) ([7]; one dog, first infusion, 3rd reading (30 min)): 44%
ejection fraction (EF) ([7]; one dog, first infusion, 4th reading (45 min)): 38%
ejection fraction (EF) ([7]; one dog, second infusion, 1st reading): 46%
ejection fraction (EF) ([7]; one dog, second infusion, 2nd reading): 37%
ejection fraction (EF) ([7]; one dog, second infusion, 3rd reading): 40%
ejection fraction (EF) ([7]; one dog, second infusion, 4th reading): 38%
ejection fraction ([7]; second dog (Figure VI), 0.7 mg/Kg/min for 15 minutes, 1st reading, from 50): 54%
ejection fraction ([7]; second dog (Figure VI), 2nd reading): 65%
ejection fraction [7, 13]: 70%
increase of ejection fraction [7, 13]: 40%
mutagenic potential [8]: negative
LD50 [9]: ~55 mg/kg
effect on contractility, arterial pressure or heart rate after beta blockade [10]: did not change the effect of berberine
solubility as a function of pH [11]: increases when pH is lowered towards acidity
solubility in sugar solutions [11]: soluble (among others) in sugar solutions

COc1cc2c(cc1O)C[C@H]1c3cc(O)c(OC)cc3CCN1C2 [coreximine]
oral effects compared with berberine ([12]; dog, in vivo, po): more marked than those of berberine
increase of LV dP/dt ([12]; oral 5 mg/kg twice daily, after the first day): 25%
